Experiment: recombinant barcode read abundance after kanamycin selection (control-corrected) (log10(CPM+1)); higher = more efficient recombination; sequences stand for … in AGTGCAGAGAAAATCGGCCAGTTTTCTCTGCCTGCAGTCCGCATGCCGT…AGATTTATGCAGCGGACTGCCTTTCTCCCAAAGTGATAAACCGGACAGTATCATGGACCGGTTTTCCCGGTAATCCGTATTTGCAAGGTTGGTTTCACT; site = the 11-nt target
How it was run: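 IS621 bridge RNA target-binding loops were paired with targets in a pooled library tested in E. coli. After co-electroporation with a donor plasmid, cells were plated in two replicates on chloramphenicol/ampicillin LB agar (control) and on chloramphenicol/ampicillin/kanamycin carrying 0.1 mM IPTG. Barcodes at recombinant junctions were counted as counts per million, averaged and control-corrected to give recombination efficiency. Values are log10(CPM+1).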
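Note: IS621 recombinase and bridge RNA in Escherichia coli cells.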

“CGCAATGCTTGGGTTCTAACCTGTTGCCT (site CGAAATGCTAG)” and “CGCAATGCTTGGGTTCTAACCTGTTGCCT (site CGCAATGCTAG)” are within 0.2 log units of each other in “recombinant barcode read abundance (log10)” value: 0.125 for the first, 0.07 for the second.

“CGCAATGCTTGGGTTCTAACCTGTTGCCT (site CGGAATGCTAG)” and “CGCAATGCTTGGGTTCTAACCTGTTGCCT (site CGTAATGCTAG)” are within 0.2 log units of each other in “recombinant barcode read abundance (log10)” value: 0.469 for the first, 0.322 for the second.

Going from “CGCAGCACTTGGGTTCTAACCTGTTGCCT (site AGCAGCACTAG)” to “CGCAGCACTTGGGTTCTAACCTGTTGCCT (site CGCAGCACTAG)”, the “recombinant barcode read abundance (log10)” value rises from 0.067 to 0.63.

“CGCCAGCCTTGGGTTCTAACCTGTTGCCT (site CGCCAGCCTAG)” and “CGCCAGCCTTGGGTTCTAACCTGTTGCCT (site CGCCTGCCTAG)” are within 0.2 log units of each other in “recombinant barcode read abundance (log10)” value: 0.0113 for the first, 0 for the second.

“CGCCCTTCTTGGGTTCTAACCTGTTGCCT (site CGCCCTTCTAG)” and “CGCCCTTCTTGGGTTCTAACCTGTTGCCT (site TAAGGGACTTA)” are within 0.2 log units of each other in “recombinant barcode read abundance (log10)” value: 0.0296 for the first, 0.0823 for the second.

“CGCCGTACTTGGGTTCTAACCTGTTGCCT (site CGACGTACTAG)” and “CGCCGTACTTGGGTTCTAACCTGTTGCCT (site CGCCGTACTAG)” are within 0.2 log units of each other in “recombinant barcode read abundance (log10)” value: 0.264 for the first, 0.405 for the second.

First: CGCCGTACTTGGGTTCTAACCTGTTGCCT (site CGGCGTACTAG)
Second: CGCCGTACTTGGGTTCTAACCTGTTGCCT (site CGTCGTACTAG)
The “recombinant barcode read abundance (log10)” value of the first is higher: 0.349 for the first, 0.0659 for the second.

“CGCCTCACTTGGGTTCTAACCTGTTGCCT (site CGCCTCACTAG)” and “CGCCTCACTTGGGTTCTAACCTGTTGCCT (site CGCCTCCCTAG)” are within 0.2 log units of each other in “recombinant barcode read abundance (log10)” value: 0.0456 for the first, 0.152 for the second.

“CGCCTCACTTGGGTTCTAACCTGTTGCCT (site CGCCTCGCTAG)” and “CGCCTCACTTGGGTTCTAACCTGTTGCCT (site CGCCTCTCTAG)” are within 0.2 log units of each other in “recombinant barcode read abundance (log10)” value: 0.166 for the first, 0.0333 for the second.

“CGCGAGTCTTGGGTTCTAACCTGTTGCTG (site CGCGAGTCTCA)” and “CGCGAGTCTTGGGTTCTAACCTGTTGCTG (site TAATTTGCTAG)” are within 0.2 log units of each other in “recombinant barcode read abundance (log10)” value: 0.254 for the first, 0.142 for the second.

“CGCGCCACTTGGGTTCTAACCTGTTGCCT (site CGCGCCACTAG)” and “CGCGCCACTTGGGTTCTAACCTGTTGCCT (site TAGCAGTCTGC)” are within 0.2 log units of each other in “recombinant barcode read abundance (log10)” value: 0.383 for the first, 0.188 for the second.

Going from “CGCGCCTCTTGGGTTCTAACCTGTTGCCG (site CGCGCCTCTCG)” to “CGCGCCTCTTGGGTTCTAACCTGTTGCCG (site GGCCCCTCTCG)”, the “recombinant barcode read abundance (log10)” value rises from 0.0377 to 0.362.

Going from “CGCGGGGCTTGGGTTCTAACCTGTTGCCT (site CGCGCGGCTAG)” to “CGCGGGGCTTGGGTTCTAACCTGTTGCCT (site CGCGGGGCTAG)”, the “recombinant barcode read abundance (log10)” value rises from 0.392 to 0.662.

“CGCGGTCCTTGGGTTCTAACCTGTTGCCT (site CGCGATCCTAG)” and “CGCGGTCCTTGGGTTCTAACCTGTTGCCT (site CGCGCTCCTAG)” are within 0.2 log units of each other in “recombinant barcode read abundance (log10)” value: 0.305 for the first, 0.109 for the second.

“CGCGGTCCTTGGGTTCTAACCTGTTGCCT (site CGCGGTCCTAG)” and “CGCGGTCCTTGGGTTCTAACCTGTTGCCT (site CGCGTTCCTAG)” are within 0.2 log units of each other in “recombinant barcode read abundance (log10)” value: 0.0165 for the first, 0.084 for the second.

“CGCTAGACTTGGGTTCTAACCTGTTGCCT (site CGCTAGACTAG)” and “CGCTAGACTTGGGTTCTAACCTGTTGCCT (site CGCTCGACTAG)” are within 0.2 log units of each other in “recombinant barcode read abundance (log10)” value: 0.13 for the first, 0.0159 for the second.

“CGCTAGACTTGGGTTCTAACCTGTTGCCT (site CGCTGGACTAG)” and “CGCTAGACTTGGGTTCTAACCTGTTGCCT (site CGCTTGACTAG)” are within 0.2 log units of each other in “recombinant barcode read abundance (log10)” value: 0.0628 for the first, 0.052 for the second.

First: CGCTAGTCTTGGGTTCTAACCTGTTGCCT (site CGCTAGTCTAG)
Second: CGCTAGTCTTGGGTTCTAACCTGTTGCCT (site CGCTCGTCTAG)
The “recombinant barcode read abundance (log10)” value of the first is higher: 0.451 for the first, 0.22 for the second.

First: CGCTAGTCTTGGGTTCTAACCTGTTGCCT (site CGCTGGTCTAG)
Second: CGCTAGTCTTGGGTTCTAACCTGTTGCCT (site CGCTTGTCTAG)
The “recombinant barcode read abundance (log10)” value of the first is higher: 0.285 for the first, 0.0462 for the second.

“CGCTCATCTTGGGTTCTAACCTGTTGCCT (site CGATCATCTAG)” and “CGCTCATCTTGGGTTCTAACCTGTTGCCT (site CGCTCATCTAG)” are within 0.2 log units of each other in “recombinant barcode read abundance (log10)” value: 0.214 for the first, 0.0416 for the second.

“CGCTCATCTTGGGTTCTAACCTGTTGCCT (site CGGTCATCTAG)” and “CGCTCATCTTGGGTTCTAACCTGTTGCCT (site CGTTCATCTAG)” are within 0.2 log units of each other in “recombinant barcode read abundance (log10)” value: 0.154 for the first, 0.211 for the second.

First: CGCTCGACTTGGGTTCTAACCTGTTGCCT (site CGCTAGACTAG)
Second: CGCTCGACTTGGGTTCTAACCTGTTGCCT (site CGCTCGACTAG)
The “recombinant barcode read abundance (log10)” value of the first is higher: 0.596 for the first, 0.0944 for the second.

“CGCTCGACTTGGGTTCTAACCTGTTGCCT (site CGCTGGACTAG)” and “CGCTCGACTTGGGTTCTAACCTGTTGCCT (site CGCTTGACTAG)” are within 0.2 log units of each other in “recombinant barcode read abundance (log10)” value: 0.188 for the first, 0.0207 for the second.

“CGCTGGCCTTGGGTTCTAACCTGTTGCTT (site CGCTGACCTAA)” and “CGCTGGCCTTGGGTTCTAACCTGTTGCTT (site CGCTGCCCTAA)” are within 0.2 log units of each other in “recombinant barcode read abundance (log10)” value: 0.033 for the first, 0.112 for the second.

“CGCTGGCCTTGGGTTCTAACCTGTTGCTT (site CGCTGGCCTAA)” and “CGCTGGCCTTGGGTTCTAACCTGTTGCTT (site CGCTGTCCTAA)” are within 0.2 log units of each other in “recombinant barcode read abundance (log10)” value: 0.162 for the first, 0.0658 for the second.

“CGCTTGACTTGGGTTCTAACCTGTTGCCT (site CGCTAGACTAG)” and “CGCTTGACTTGGGTTCTAACCTGTTGCCT (site CGCTCGACTAG)” are within 0.2 log units of each other in “recombinant barcode read abundance (log10)” value: 0.0413 for the first, 0.164 for the second.

“CGCTTGACTTGGGTTCTAACCTGTTGCCT (site CGCTGGACTAG)” and “CGCTTGACTTGGGTTCTAACCTGTTGCCT (site CGCTTGACTAG)” are within 0.2 log units of each other in “recombinant barcode read abundance (log10)” value: 0.131 for the first, 0.00854 for the second.

“CGCTTTACTTGGGTTCTAACCTGTTGCCG (site CGCTTTACTCG)” and “CGCTTTACTTGGGTTCTAACCTGTTGCCG (site TAGACATCTAC)” are within 0.2 log units of each other in “recombinant barcode read abundance (log10)” value: 0.104 for the first, 0.0706 for the second.

“CGGAAATCTTGGGTTCTAACCTGTTGCCT (site CGAAAATCTAG)” and “CGGAAATCTTGGGTTCTAACCTGTTGCCT (site CGCAAATCTAG)” are within 0.2 log units of each other in “recombinant barcode read abundance (log10)” value: 0.171 for the first, 0.0224 for the second.

“CGGAAATCTTGGGTTCTAACCTGTTGCCT (site CGGAAATCTAG)” and “CGGAAATCTTGGGTTCTAACCTGTTGCCT (site CGTAAATCTAG)” are within 0.2 log units of each other in “recombinant barcode read abundance (log10)” value: 0.127 for the first, 0.0515 for the second.

Going from “CGGAACACTTGGGTTCTAACCTGTTGCGG (site CGGAACACTCC)” to “CGGAACACTTGGGTTCTAACCTGTTGCGG (site CGGCACACTCC)”, the “recombinant barcode read abundance (log10)” value falls from 2.84 to 0.755.

“CGGAACACTTGGGTTCTAACCTGTTGCGG (site CGGGACACTCC)” and “CGGAACACTTGGGTTCTAACCTGTTGCGG (site CGGTACACTCC)” are within 0.2 log units of each other in “recombinant barcode read abundance (log10)” value: 0.908 for the first, 1.08 for the second.

“CGGAATGCTTGGGTTCTAACCTGTTGCCT (site CGAAATGCTAG)” and “CGGAATGCTTGGGTTCTAACCTGTTGCCT (site CGCAATGCTAG)” are within 0.2 log units of each other in “recombinant barcode read abundance (log10)” value: 0.198 for the first, 0.0762 for the second.

Compared with “CGGAATGCTTGGGTTCTAACCTGTTGCCT (site CGGAATGCTAG)”, “CGGAATGCTTGGGTTCTAACCTGTTGCCT (site CGTAATGCTAG)” is lower in “recombinant barcode read abundance (log10)” value: 1.38 for the first, 0.0616 for the second.

Compared with “CGGACGACTTGGGTTCTAACCTGTTGCCT (site CGGACGACTAG)”, “CGGACGACTTGGGTTCTAACCTGTTGCCT (site CGGACGCCTAG)” is lower in “recombinant barcode read abundance (log10)” value: 0.963 for the first, 0.0677 for the second.

“CGGACGACTTGGGTTCTAACCTGTTGCCT (site CGGACGGCTAG)” and “CGGACGACTTGGGTTCTAACCTGTTGCCT (site CGGACGTCTAG)” are within 0.2 log units of each other in “recombinant barcode read abundance (log10)” value: 0.0816 for the first, 0.111 for the second.

Compared with “CGGAGCCCTTGGGTTCTAACCTGTTGCGG (site AGGAGCCCTTC)”, “CGGAGCCCTTGGGTTCTAACCTGTTGCGG (site CGGAGCCCTCC)” is higher in “recombinant barcode read abundance (log10)” value: 0.0728 for the first, 1.82 for the second.

Compared with “CGGATCGCTTGGGTTCTAACCTGTTGCCT (site CGGATAGCTAG)”, “CGGATCGCTTGGGTTCTAACCTGTTGCCT (site CGGATCGCTAG)” is higher in “recombinant barcode read abundance (log10)” value: 0.079 for the first, 1.76 for the second.

“CGGATCGCTTGGGTTCTAACCTGTTGCCT (site CGGATGGCTAG)” and “CGGATCGCTTGGGTTCTAACCTGTTGCCT (site CGGATTGCTAG)” are within 0.2 log units of each other in “recombinant barcode read abundance (log10)” value: 0.153 for the first, 0.271 for the second.

“CGGCATACTTGGGTTCTAACCTGTTGCCT (site CAGCATACTAG)” and “CGGCATACTTGGGTTCTAACCTGTTGCCT (site CCGCATACTAG)” are within 0.2 log units of each other in “recombinant barcode read abundance (log10)” value: 0.0864 for the first, 0.0245 for the second.

Compared with “CGGCATACTTGGGTTCTAACCTGTTGCCT (site CGGCATACTAG)”, “CGGCATACTTGGGTTCTAACCTGTTGCCT (site CTGCATACTAG)” is lower in “recombinant barcode read abundance (log10)” value: 0.66 for the first, 0 for the second.

First: CGGCCACCTTGGGTTCTAACCTGTTGCCT (site CGGCCACCTAG)
Second: CGGCCACCTTGGGTTCTAACCTGTTGCCT (site TGGCCACCTAG)
The “recombinant barcode read abundance (log10)” value of the first is higher: 2.02 for the first, 0.0718 for the second.

First: CGGCCTACTTGGGTTCTAACCTGTTGCTT (site CGGCCTACTAA)
Second: CGGCCTACTTGGGTTCTAACCTGTTGCTT (site CGGCTTCCTAA)
The “recombinant barcode read abundance (log10)” value of the first is higher: 0.659 for the first, 0.137 for the second.

— the supplement of paper PMC11208160
